In assay [1] the target is T1, Ephrin type-A receptor 8 (Homo sapiens) (UniProt P29322).
T1 sequence (whole entry): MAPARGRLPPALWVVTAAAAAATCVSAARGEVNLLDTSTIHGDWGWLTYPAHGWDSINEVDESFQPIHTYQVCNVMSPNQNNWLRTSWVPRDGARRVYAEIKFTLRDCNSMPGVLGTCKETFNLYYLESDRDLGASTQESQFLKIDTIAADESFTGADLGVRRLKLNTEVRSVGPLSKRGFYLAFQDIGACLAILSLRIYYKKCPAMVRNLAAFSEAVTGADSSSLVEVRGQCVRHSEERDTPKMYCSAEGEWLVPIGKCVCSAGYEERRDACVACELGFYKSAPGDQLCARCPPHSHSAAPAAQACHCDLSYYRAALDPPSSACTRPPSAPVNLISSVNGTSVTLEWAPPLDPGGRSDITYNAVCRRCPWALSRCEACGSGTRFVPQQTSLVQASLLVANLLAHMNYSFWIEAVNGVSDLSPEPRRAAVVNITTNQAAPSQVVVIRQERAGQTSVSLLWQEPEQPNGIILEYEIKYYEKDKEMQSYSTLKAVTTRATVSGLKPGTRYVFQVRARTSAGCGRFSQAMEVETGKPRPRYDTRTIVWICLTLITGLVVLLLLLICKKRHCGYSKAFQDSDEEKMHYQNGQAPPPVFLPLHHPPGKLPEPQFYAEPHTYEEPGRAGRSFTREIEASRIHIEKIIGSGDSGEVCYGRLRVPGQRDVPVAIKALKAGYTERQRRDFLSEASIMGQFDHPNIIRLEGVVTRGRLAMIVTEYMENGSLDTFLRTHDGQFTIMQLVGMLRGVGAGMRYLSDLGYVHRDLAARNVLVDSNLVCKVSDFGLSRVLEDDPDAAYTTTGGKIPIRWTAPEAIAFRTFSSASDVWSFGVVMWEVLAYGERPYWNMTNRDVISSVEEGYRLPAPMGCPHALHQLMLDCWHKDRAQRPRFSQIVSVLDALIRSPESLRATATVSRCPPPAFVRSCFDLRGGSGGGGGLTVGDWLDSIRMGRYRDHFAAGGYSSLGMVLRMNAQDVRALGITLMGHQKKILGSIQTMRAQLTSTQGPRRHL
As to the kind of experiment: EphA8(h) Eurofins kinase panel. To be noted: Compound concentration 1.0 uM.

Assay [2] addresses T2, Serine/threonine-protein kinase 17A (Homo sapiens) (UniProt Q9UEE5).
T2 sequence (whole entry): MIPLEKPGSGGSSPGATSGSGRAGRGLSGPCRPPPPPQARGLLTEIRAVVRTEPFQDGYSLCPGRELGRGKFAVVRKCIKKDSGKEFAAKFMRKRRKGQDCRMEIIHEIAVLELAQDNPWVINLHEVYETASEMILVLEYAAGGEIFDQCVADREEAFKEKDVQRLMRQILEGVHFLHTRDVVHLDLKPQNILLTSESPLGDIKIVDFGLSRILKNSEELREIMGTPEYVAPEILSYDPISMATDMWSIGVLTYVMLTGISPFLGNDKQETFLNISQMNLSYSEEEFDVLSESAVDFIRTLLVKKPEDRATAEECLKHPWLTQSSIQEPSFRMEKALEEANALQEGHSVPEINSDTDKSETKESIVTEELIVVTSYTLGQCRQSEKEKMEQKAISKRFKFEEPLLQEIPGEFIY
The assay is described as follows: DRAK1(h) Eurofins kinase panel. To be noted: Compound concentration 1.0 uM.

Assay [3] concerns CWR22R. The assay is described as follows: 22Rv1 cell line Proliferation assay. Format: functional, Homo sapiens. To be noted: time 6 day.
The target of assay [4] is T3, Phosphatidylinositol 3-kinase C2 domain-containing subunit gamma (Homo sapiens) (UniProt O75747).
T3 sequence (whole entry): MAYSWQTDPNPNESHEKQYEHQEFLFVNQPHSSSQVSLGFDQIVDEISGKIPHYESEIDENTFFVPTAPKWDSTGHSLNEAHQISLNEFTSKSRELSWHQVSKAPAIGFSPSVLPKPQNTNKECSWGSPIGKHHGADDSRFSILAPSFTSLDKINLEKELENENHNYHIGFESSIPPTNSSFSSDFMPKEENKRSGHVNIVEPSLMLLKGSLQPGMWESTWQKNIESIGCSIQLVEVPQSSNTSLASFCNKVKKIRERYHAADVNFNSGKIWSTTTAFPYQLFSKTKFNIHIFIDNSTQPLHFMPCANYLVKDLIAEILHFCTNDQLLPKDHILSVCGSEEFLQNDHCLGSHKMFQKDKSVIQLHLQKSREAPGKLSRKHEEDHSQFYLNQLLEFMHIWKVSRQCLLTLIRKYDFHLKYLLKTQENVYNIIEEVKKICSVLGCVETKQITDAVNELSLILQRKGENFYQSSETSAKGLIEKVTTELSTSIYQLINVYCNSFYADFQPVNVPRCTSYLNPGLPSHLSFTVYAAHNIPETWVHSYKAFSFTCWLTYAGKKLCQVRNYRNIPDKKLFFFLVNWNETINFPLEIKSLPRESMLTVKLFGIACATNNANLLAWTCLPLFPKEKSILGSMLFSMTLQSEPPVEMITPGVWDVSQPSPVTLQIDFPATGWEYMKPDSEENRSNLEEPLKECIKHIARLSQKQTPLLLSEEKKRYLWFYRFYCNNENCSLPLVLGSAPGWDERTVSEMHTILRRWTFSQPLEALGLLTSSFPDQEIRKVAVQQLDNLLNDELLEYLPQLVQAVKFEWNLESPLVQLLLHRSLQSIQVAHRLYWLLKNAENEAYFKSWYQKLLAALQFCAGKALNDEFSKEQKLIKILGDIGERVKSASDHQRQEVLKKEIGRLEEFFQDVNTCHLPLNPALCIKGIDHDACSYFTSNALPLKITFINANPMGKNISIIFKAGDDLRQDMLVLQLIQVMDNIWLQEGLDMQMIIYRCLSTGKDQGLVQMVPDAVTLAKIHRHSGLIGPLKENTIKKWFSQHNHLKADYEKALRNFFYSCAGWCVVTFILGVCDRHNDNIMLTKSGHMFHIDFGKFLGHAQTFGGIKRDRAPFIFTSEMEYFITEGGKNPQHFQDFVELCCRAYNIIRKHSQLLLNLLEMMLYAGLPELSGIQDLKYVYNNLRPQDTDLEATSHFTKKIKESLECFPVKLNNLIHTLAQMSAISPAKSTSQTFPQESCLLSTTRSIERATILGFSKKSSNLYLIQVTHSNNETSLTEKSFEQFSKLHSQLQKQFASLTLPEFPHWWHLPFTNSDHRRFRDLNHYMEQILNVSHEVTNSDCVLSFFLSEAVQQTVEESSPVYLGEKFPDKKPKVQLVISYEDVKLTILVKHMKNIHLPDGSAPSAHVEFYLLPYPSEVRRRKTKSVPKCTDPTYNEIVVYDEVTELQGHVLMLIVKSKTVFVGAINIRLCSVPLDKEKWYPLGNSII
As to the kind of experiment: PI3KC2g(h) Eurofins kinase panel. To be noted: Compound concentration 1.0 uM.

The target in assay [5] is Serine/threonine-protein kinase MRCK beta (Homo sapiens) (UniProt Q9Y5S2). As to the kind of experiment: MRCKbeta(h) Eurofins kinase panel. Particulars: Compound concentration 1.0 uM.
Assay [6] relates to LS174T. As to the kind of experiment: LS-174T cell line Proliferation assay. Particulars: time 3 day. Format: functional, Homo sapiens.

Each structure is given as a SMILES string.

Sequence of Serine/threonine-protein kinase MRCK beta (Homo sapiens) (Q9Y5S2 whole entry): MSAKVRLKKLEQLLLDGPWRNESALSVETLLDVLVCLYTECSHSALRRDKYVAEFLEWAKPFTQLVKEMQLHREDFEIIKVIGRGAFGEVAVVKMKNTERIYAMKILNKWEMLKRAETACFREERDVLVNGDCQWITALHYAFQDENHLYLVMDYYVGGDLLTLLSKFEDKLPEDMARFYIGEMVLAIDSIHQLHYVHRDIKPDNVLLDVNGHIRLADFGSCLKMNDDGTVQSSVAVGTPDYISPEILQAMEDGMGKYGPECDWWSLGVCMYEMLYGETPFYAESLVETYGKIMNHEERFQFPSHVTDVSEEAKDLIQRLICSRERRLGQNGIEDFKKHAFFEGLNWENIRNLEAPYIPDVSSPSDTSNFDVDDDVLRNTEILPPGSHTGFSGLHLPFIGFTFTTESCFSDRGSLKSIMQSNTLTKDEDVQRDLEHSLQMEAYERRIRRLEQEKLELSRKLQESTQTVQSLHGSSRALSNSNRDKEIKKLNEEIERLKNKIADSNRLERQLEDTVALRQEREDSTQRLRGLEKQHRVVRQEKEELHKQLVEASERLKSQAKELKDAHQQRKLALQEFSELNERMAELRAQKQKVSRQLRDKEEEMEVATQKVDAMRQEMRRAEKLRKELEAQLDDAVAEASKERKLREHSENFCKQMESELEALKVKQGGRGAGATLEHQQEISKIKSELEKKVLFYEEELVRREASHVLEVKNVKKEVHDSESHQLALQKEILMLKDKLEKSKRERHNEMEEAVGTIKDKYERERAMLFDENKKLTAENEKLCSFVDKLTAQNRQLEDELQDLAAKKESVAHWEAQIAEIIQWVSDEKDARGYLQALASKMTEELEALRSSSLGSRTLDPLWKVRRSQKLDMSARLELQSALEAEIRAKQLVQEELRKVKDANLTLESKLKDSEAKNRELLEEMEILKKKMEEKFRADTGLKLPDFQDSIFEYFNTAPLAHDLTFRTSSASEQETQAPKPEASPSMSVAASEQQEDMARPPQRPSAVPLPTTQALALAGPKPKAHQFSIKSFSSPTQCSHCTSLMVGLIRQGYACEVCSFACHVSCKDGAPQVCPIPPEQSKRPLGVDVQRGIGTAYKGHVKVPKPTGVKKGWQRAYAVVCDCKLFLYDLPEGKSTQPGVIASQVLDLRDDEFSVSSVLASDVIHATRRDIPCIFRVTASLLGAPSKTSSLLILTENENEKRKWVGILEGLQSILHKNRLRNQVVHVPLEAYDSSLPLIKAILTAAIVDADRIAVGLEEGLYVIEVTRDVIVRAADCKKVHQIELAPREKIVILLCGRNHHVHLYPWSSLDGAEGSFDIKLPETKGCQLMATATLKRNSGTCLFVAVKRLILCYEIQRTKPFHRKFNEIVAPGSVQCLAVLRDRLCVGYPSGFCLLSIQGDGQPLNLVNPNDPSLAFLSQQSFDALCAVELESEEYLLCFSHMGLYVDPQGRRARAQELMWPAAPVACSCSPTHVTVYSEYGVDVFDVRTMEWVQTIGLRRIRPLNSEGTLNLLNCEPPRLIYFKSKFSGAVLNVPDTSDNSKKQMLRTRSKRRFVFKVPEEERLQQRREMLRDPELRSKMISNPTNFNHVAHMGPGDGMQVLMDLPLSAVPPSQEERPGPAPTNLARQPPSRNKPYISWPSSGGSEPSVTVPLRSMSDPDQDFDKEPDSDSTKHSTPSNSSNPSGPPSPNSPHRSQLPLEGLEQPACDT

Take `CCc1ccccc1C(=O)Nc1n[nH]c2c(C)c(F)c(C3C(C#N)=C(C)N(C)C(C)=C3C#N)cc12` [BAY-3827]: the % residual kinase activity in assay [1] was 102%; in assay [2], 119%; in assay [4], 100%; in assay [5], 109%. In addition, the “Cell Proliferation IC50” value in assay [3] is 5.55 µM; in assay [6], greater than 30 µM.
